{"source": "patent US20200345746A1", "about": "“Oxazine Derivative for Use in the Prevention of Alzheimer's Disease in at Risk Patents” (Novartis AG, priority 2016, published 2020)", "test_system": "Aβ40", "assay": "First-in-human study: Aβ40 in CSF", "type": "in vivo", "details": "for Aβ40 % change from baseline, Mean (SD) / Aβ40 % change from baseline, Median: CSF, 2 weeks; for lowering of CSF Aβ40 concentrations, up to: healthy elderly subjects", "experimental": "The purpose of this study was to determine the single and multiple maximum tolerated dose of Compound 1 and to assess the pharmacokinetic/pharmacodynamic (PK/PD) relationship using Aβ in CSF as primary PD biomarker.\nPharmacodynamic assessments using Aβ concentrations in CSF as primary biomarker of drug action were also been applied in healthy elderly subjects. Dose-dependent lowering of Aβ40 concentrations was determined up to approximately 80% and 90% after single and multiple dosing, respectively (Tables 14 and 15, FIG. 9).\nIn the completed first-in-human and 3-month dose-ranging safety and tolerability clinical studies described in Examples 5 and 6, Aβ concentrations in CSF were obtained by means of lumbar punctures before the first dose (baseline) and respectively after 2 weeks and 3 months of multiple dosing. ApoE4 genotype also was obtained in the subjects who consented. The percent change from baseline in Aβ40 and Aβ42 concentrations was calculated in subjects who took the study treatment and had no major protocol deviation with potential impact on the evaluation of the pharmacodynamic effect. Tables 18 to 21 below provide summary statistics of the percent change from baseline by treatment group and ApoE genotype (E4 heterozygotes versus E4 non-carriers). Only one subject with CSF data was E4 homozygote (from the 3-month dose-ranging safety and tolerability study).", "key": {"[1]": {"details": "multiple-dose 10 mg, Day 15 (24 h post last dose)"}, "[2]": {"details": "multiple-dose 30 mg, Day 15 (24 h post last dose)"}, "[3]": {"details": "multiple-dose 90 mg, Day 15 (24 h post last dose)"}, "[4]": {"details": "multiple-dose 300 mg, Day 15 (24 h post last dose)"}}, "data": [{"smiles": "C[C@@]1(c2nc(NC(=O)c3ncc(C(F)(F)F)cc3Cl)ccc2F)CO[C@@](C)(C(F)(F)F)C(N)=N1", "note": "[Compound 1, N-(6-((3R,6R)-5-amino-3,6-dimethyl-6-(trifluoromethyl)-3,6-dihydro-2H-1,4-oxazin-3-yl)-5-fluoropyridin-2-yl)-3-chloro-5-(trifluoromethyl)picolinamide]", "values": [{"measurement": "Aβ40 % change from baseline, Mean (SD)", "setting": "10 mg, E4 heterozygotes", "result": "−56 (10) %"}, {"measurement": "Aβ40 % change from baseline, Median", "setting": "10 mg, E4 heterozygotes", "result": "−53", "unit": "%"}, {"measurement": "Aβ40 % change from baseline, Mean (SD)", "setting": "10 mg, E4 non-carriers", "result": "−59 (7) %"}, {"measurement": "Aβ40 % change from baseline, Median", "setting": "10 mg, E4 non-carriers", "result": "−61", "unit": "%"}, {"measurement": "Aβ40 % change from baseline, Mean (SD)", "setting": "30 mg, E4 non-carriers", "result": "−80 (4) %"}, {"measurement": "Aβ40 % change from baseline, Median", "setting": "30 mg, E4 non-carriers", "result": "−81", "unit": "%"}, {"measurement": "Aβ40 % change from baseline, Mean (SD)", "setting": "90 mg, E4 heterozygotes", "result": "−90 (2) %"}, {"measurement": "Aβ40 % change from baseline, Median", "setting": "90 mg, E4 heterozygotes", "result": "−90", "unit": "%"}, {"measurement": "Aβ40 % change from baseline, Mean (SD)", "setting": "90 mg, E4 non-carriers", "result": "−89 (2) %"}, {"measurement": "Aβ40 % change from baseline, Median", "setting": "90 mg, E4 non-carriers", "result": "−90", "unit": "%"}, {"measurement": "Aβ40 % change from baseline, Mean (SD)", "setting": "300 mg, E4 heterozygotes (n 1)", "result": "−93", "unit": "%"}, {"measurement": "Aβ40 % change from baseline, Median", "setting": "300 mg, E4 heterozygotes (n 1)", "result": "−93", "unit": "%"}, {"measurement": "Aβ40 % change from baseline, Mean (SD)", "setting": "300 mg, E4 non-carriers", "result": "−94 (1) %"}, {"measurement": "Aβ40 % change from baseline, Median", "setting": "300 mg, E4 non-carriers", "result": "−94", "unit": "%"}, {"measurement": "lowering of CSF Aβ40 concentrations, up to", "setting": "multiple dosing", "result": "~90", "unit": "%"}, {"measurement": "lowering of CSF Aβ40 concentrations, up to", "setting": "single dosing", "result": "approximately 80%"}, {"measurement": "Aβ40 in CSF percent change from baseline, Mean (SD)", "setting": "[1]", "result": "−60.1 (9.91) %"}, {"measurement": "Aβ40 in CSF percent change from baseline, Median", "setting": "[1]", "result": "−61.5", "unit": "%"}, {"measurement": "Aβ40 in CSF percent change from baseline, Mean (SD)", "setting": "[2]", "result": "−80.0 (3.89) %"}, {"measurement": "Aβ40 in CSF percent change from baseline, Median", "setting": "[2]", "result": "−80.2", "unit": "%"}, {"measurement": "Aβ40 in CSF percent change from baseline, Mean (SD)", "setting": "[3]", "result": "−88.2 (3.07) %"}, {"measurement": "Aβ40 in CSF percent change from baseline, Median", "setting": "[3]", "result": "−89.1", "unit": "%"}, {"measurement": "Aβ40 in CSF percent change from baseline, Mean (SD)", "setting": "[4]", "result": "−93.6 (0.61) %"}, {"measurement": "Aβ40 in CSF percent change from baseline, Median", "setting": "[4]", "result": "−93.5", "unit": "%"}, {"measurement": "Aβ40 in CSF percent change from baseline, Mean (SD)", "setting": "single-dose 10 mg, 12 h", "result": "−11.6 (8.31) %"}, {"measurement": "Aβ40 in CSF percent change from baseline, Median", "setting": "single-dose 10 mg, 12 h", "result": "−12.5", "unit": "%"}, {"measurement": "Aβ40 in CSF percent change from baseline, Min-Max", "setting": "single-dose 10 mg, 12 h", "result": "−21-1%"}, {"measurement": "Aβ40 in CSF percent change from baseline, Mean (SD)", "setting": "single-dose 10 mg, 24 h", "result": "−15.0 (10.21) %"}, {"measurement": "Aβ40 in CSF percent change from baseline, Median", "setting": "single-dose 10 mg, 24 h", "result": "−14.3", "unit": "%"}, {"measurement": "Aβ40 in CSF percent change from baseline, Min-Max", "setting": "single-dose 10 mg, 24 h", "result": "−31-−4%"}, {"measurement": "Aβ40 in CSF percent change from baseline, Mean (SD)", "setting": "single-dose 10 mg, 34 h", "result": "−9.7 (14.72) %"}, {"measurement": "Aβ40 in CSF percent change from baseline, Median", "setting": "single-dose 10 mg, 34 h", "result": "−12.5", "unit": "%"}, {"measurement": "Aβ40 in CSF percent change from baseline, Min-Max", "setting": "single-dose 10 mg, 34 h", "result": "−25-10%"}, {"measurement": "Aβ40 in CSF percent change from baseline, Mean (SD)", "setting": "single-dose 90 mg, 12 h", "result": "−14.2 (35.83) %"}, {"measurement": "Aβ40 in CSF percent change from baseline, Median", "setting": "single-dose 90 mg, 12 h", "result": "−28.0", "unit": "%"}, {"measurement": "Aβ40 in CSF percent change from baseline, Min-Max", "setting": "single-dose 90 mg, 12 h", "result": "−36-58%"}, {"measurement": "Aβ40 in CSF percent change from baseline, Mean (SD)", "setting": "single-dose 90 mg, 24 h", "result": "−44.8 (12.48) %"}, {"measurement": "Aβ40 in CSF percent change from baseline, Median", "setting": "single-dose 90 mg, 24 h", "result": "−49.2", "unit": "%"}, {"measurement": "Aβ40 in CSF percent change from baseline, Min-Max", "setting": "single-dose 90 mg, 24 h", "result": "−55-−25%"}, {"measurement": "Aβ40 in CSF percent change from baseline, Mean (SD)", "setting": "single-dose 90 mg, 34 h", "result": "−50.0 (8.87) %"}, {"measurement": "Aβ40 in CSF percent change from baseline, Median", "setting": "single-dose 90 mg, 34 h", "result": "−45.4", "unit": "%"}, {"measurement": "Aβ40 in CSF percent change from baseline, Min-Max", "setting": "single-dose 90 mg, 34 h", "result": "−60-−41%"}, {"measurement": "Aβ40 in CSF percent change from baseline, Mean (SD)", "setting": "single-dose 300 mg, 12 h", "result": "−35.8 (16.40) %"}, {"measurement": "Aβ40 in CSF percent change from baseline, Median", "setting": "single-dose 300 mg, 12 h", "result": "−44.1", "unit": "%"}, {"measurement": "Aβ40 in CSF percent change from baseline, Min-Max", "setting": "single-dose 300 mg, 12 h", "result": "−54-−13%"}, {"measurement": "Aβ40 in CSF percent change from baseline, Mean (SD)", "setting": "single-dose 300 mg, 24 h", "result": "−68.3 (10.65) %"}, {"measurement": "Aβ40 in CSF percent change from baseline, Median", "setting": "single-dose 300 mg, 24 h", "result": "−72.5", "unit": "%"}, {"measurement": "Aβ40 in CSF percent change from baseline, Min-Max", "setting": "single-dose 300 mg, 24 h", "result": "−79-−52%"}, {"measurement": "Aβ40 in CSF percent change from baseline, Mean (SD)", "setting": "single-dose 300 mg, 34 h", "result": "−78.3 (4.75) %"}, {"measurement": "Aβ40 in CSF percent change from baseline, Median", "setting": "single-dose 300 mg, 34 h", "result": "−79.3", "unit": "%"}, {"measurement": "Aβ40 in CSF percent change from baseline, Min-Max", "setting": "single-dose 300 mg, 34 h", "result": "−84-−69%"}, {"measurement": "Aβ40 in CSF percent change from baseline, Mean (SD)", "setting": "single-dose 750 mg, 12 h", "result": "−36.2 (13.58) %"}, {"measurement": "Aβ40 in CSF percent change from baseline, Median", "setting": "single-dose 750 mg, 12 h", "result": "−38.6", "unit": "%"}, {"measurement": "Aβ40 in CSF percent change from baseline, Min-Max", "setting": "single-dose 750 mg, 12 h", "result": "−53-−10%"}, {"measurement": "Aβ40 in CSF percent change from baseline, Mean (SD)", "setting": "single-dose 750 mg, 24 h", "result": "−67.4 (15.54) %"}, {"measurement": "Aβ40 in CSF percent change from baseline, Median", "setting": "single-dose 750 mg, 24 h", "result": "−70.6", "unit": "%"}, {"measurement": "Aβ40 in CSF percent change from baseline, Min-Max", "setting": "single-dose 750 mg, 24 h", "result": "−82-−36%"}, {"measurement": "Aβ40 in CSF percent change from baseline, Mean (SD)", "setting": "single-dose 750 mg, 34 h", "result": "−79.1 (8.88) %"}, {"measurement": "Aβ40 in CSF percent change from baseline, Median", "setting": "single-dose 750 mg, 34 h", "result": "−82.3", "unit": "%"}, {"measurement": "Aβ40 in CSF percent change from baseline, Min-Max", "setting": "single-dose 750 mg, 34 h", "result": "−87-−60%"}]}]}
